Columns and labels:
E. coli = test: Metabolic oxidation-reduction indicator dye Alamar Blue assay; type: cell-based
Protocol: (§1) The effect of antibacterial BPI protein products on the activity of bacterial ATP synthase as measured by a metabolic oxidation-reduction indicator dye and a membrane potential indicator dye was determined as described in Example 2 of U.S. Provisional Application Ser. No. 60/143,290 filed Jul. 12, 1999 and corresponding co-owned, concurrently filed U.S. application Ser. No. 09/543,955, both of which are incorporated herein by reference and Example 9 of U.S. Provisional Application Ser. No. 60/143,485 filed Jul. 12, 1999 and corresponding U.S. application Ser. No. 09/404,926 filed Sep. 24, 1999 and International Application No. PCT/US99/22361 filed Sep. 24, 1999, all of which are incorporated herein by reference.

whole cells [1] = test: Metabolic oxidation-reduction indicator dye (Alamar Blue) assay of whole cells (general description); type: cell-based; settings: at a less than fully cytotoxic concentration
Source text: (§2) The effect of test compounds on ATP synthase activity of whole cells can also optionally be assayed using any membrane potential indicator dye or metabolic oxidation-reduction indicator dye known in the art. See Loew, Chapter 8 in Biomembrane Electrochemistry, Blank and Vodyanoy, eds., American Chemical Society, Washington, DC (1994), pages 151-173. Particularly preferred dyes are membrane potential dyes such as DiOC6(3), JC-1, rhodamine 123, or MitoTracker® reduced dyes [Molecular Probes, Eugene, Oreg.]. […] Other preferred dyes are metabolic oxidation-reduction indicator dyes such as Alamar Blue™ [AccuMed Int'l, Westlake, Ohio]. […] See U.S. Provisional Application Ser. No. 60/143,290 filed Jul. 12, 1999 and corresponding co-owned, concurrently filed U.S. application Ser. No. 09/543,955, both of which are incorporated herein by reference and U.S. Provisional Application Ser. No. 60/143,485 filed Jul. 12, 1999 and corresponding U.S. application Ser. No. 09/404,926 filed Sep. 24, 1999 and International Application No. PCT/US99/22361 filed Sep. 24, 1999, all of which are incorporated herein by reference. Iterative screening for compound selection may employ one or combination of assays for testing.

[2] = biological target: T1, mammalian mitochondrial ATP synthase; test: Phosphatase activity of ATP synthase in mitochondrial membrane preparations (mouse liver); type: biochemical; settings: 1.35 μM rBPI21, 0.082 and 0.482 μM XMP.391, 0.076 and 0.553 μM XMP.416
T1 construct: ATP synthase enzymic activity in mitochondrial preparations; from tissue; host or cells: mouse liver mitochondria, deoxycholate-lysed membrane pellet
Protocol: The effect of BPI protein products on ATP synthase enzymic activity in mitochondrial preparations was evaluated. Mitochondrial membrane preparations were prepared as follows. Male laboratory mice (Mus musculus) were sacrificed by cervical dislocation and their livers were immediately excised. The gall bladder and connective tissues were removed and the livers were washed in 0.25 M sucrose. Wet liver weight was determined after blotting the washed liver on absorbent paper. All subsequent steps of the fractionation procedure were performed on ice. The weighted livers were then homogenized with a Potter Elvehjem tissue homogenizer and six passes of a teflon pestle in 9 volumes of 0.25 M sucrose with protease inhibitors (2 μg/mL pepstatin A, 2 μg/mL aprotinin and 1 mM phenylmethylsulfonyl fluoride (PMSF). Liver homogenates were then centrifuged in a Beckman (Fullerton, Calif.) J2-21 centrifuge for 10 minutes at 600×g. The 600×g pellet (nuclei, unbroken cells and connective tissue) was discarded and the supernatant was subjected to further centrifugation. The 600×g supernatant was centrifuged at 7000×g for 10 minutes to yield a crude mitochondrial pellet.
Crude mitochondria were resuspended in 3 volumes of the original liver weight with 0.25 M sucrose and centrifuged at 7000×g for 10 minutes. The supernatant was discarded and the procedure was repeated. […]

E. coli ATP synthase = settings: bacterial membrane preparations; about ... and higher
Protocol: The effect of antibacterial BPI protein products on the ATP synthesis activity of an E. coli ATP synthase was determined as follows. Bacterial membranes were prepared as follows. A 400 mL culture of E. coli was grown overnight in TSB at 37° C. with shaking. Cells were harvested by centrifugation for 10 minutes at 1000×g, followed by washing with 20 mL of PBS and recentrifugation. Cells were resuspended in 4 ml of 25 mM HEPES, pH 7.6, 0.1 M KCl, 0.1 M EDTA, 12.5 mM MgCl2, 10% glycerol, 0.1% NP40. Then 50 μl of lysozyme (50 mg/ml) was added and the cells were incubated for 30 minutes on ice. Cells were disrupted by sonication in 3×30-second pulses. Cells were placed on ice between pulses. DNAse I was added to a 10 μg/mL final concentration (GIBCO Life Technologies, Gaithersburg, Md.) and the homogenate was left on ice for 30 minutes. […] The final pellet was resuspended in 2 mL 10 mM Tris-HC1, pH 7.0, 0.1 mM EDTA, 20% glycerol and protein concentration was determined by standard Bradford assay.
In a 96 well plate (Microlite 1, DYNEX Technologies, Chantilly Va.), 25 μg bacterial membranes were diluted into 100 μl of 55.5 mM Tris-HC1, pH 7.8, 0.222 mM MgSO4 plus the compound to be tested (XMP.391 (SEQ ID NO: 4) and rBPI21 at concentrations ranging from 40 μg/mL to 0.625 μg/mL). […] Assays were read in Endpoint mode with 30 reads per well.
E. coli O111:B4 [3] = test: In vitro bactericidal activity; type: cell-based
E. coli O111:B4 [4] = test: Membrane potential indicator dye DiOC6(3) assay; type: cell-based
Protocol: as §1

whole cells [5] = test: Membrane potential indicator dye assay of whole cells (general description); type: cell-based; settings: retention of the dye notwithstanding onset of loss of viability at the same concentration
Source text: as §2

bacterial growth = settings: cited from earlier work

Row | Substance | apparent metabolic activity relative to untreated controls (E. coli) | pattern of metabolic oxidation-reduction activity relative to control cells (whole cells [1]) | inhibition of phosphatase activity of ATP synthase [2] | concentration at which synthesis of ATP from ADP is inhibited in a dose-dependent manner (E. coli ATP synthase) | in vitro bactericidal activity (E. coli O111:B4 [3]) | accumulation and retention of membrane potential dye (E. coli O111:B4 [4]) | pattern of accumulation of membrane potential dye in cells (whole cells [5]) | concentration required to produce a therapeutic effect (bacterial growth)
1 | XMP.391: BPI-derived peptide, SEQ ID NO: 4 (KVGWLIQLFHKK) | apparent increased metabolic activity | increased metabolic oxidation-reduction activity relative to control cells | inhibited the phosphatase activity | ≥ 1 µg/mL | – | – | – | –
2 | XMP.365: BPI-derived peptide, SEQ ID NO: 3; structure described in U.S. Pat. No. 5,858,974 (KWLIQLFHKK) | apparent increased metabolic activity | increased metabolic oxidation-reduction activity relative to control cells | – | – | has in vitro bactericidal activity against this strain | produced an accumulation and retention of the dye despite cell death | accumulation in cells of membrane potential dye in a peptide concentration-dependent manner | –
3 | XMP.416: BPI-derived peptide, SEQ ID NO: 5 (KWLIQLFHKK) | – | increased metabolic oxidation-reduction activity relative to control cells | inhibited the phosphatase activity | – | – | – | – | –
4 | gentamicin | – | – | – | – | – | – | – | 8 µg/mL

Reference: patent US6376211B1, “Agents and methods for inhibiting F1/F0 ATPase” (XOMA Technology Ltd., priority 1999, dated 2002)
